Experimental data published in PMC9516332 (Frontiers in Oncology, 2022).
Read-outs that look alike come from different tables or passages of the source.

Experiments:
Test in all cases: Kinase panel profiling at 1 µmol/L (MSA or IMAP), percentage inhibition
Type in all cases: biochemical
[1] = target: panel of 255 wild-type kinases (Homo sapiens, UniProt P07332); details: read-out: %-inhibition at 1 µmol/L, FES
[2] = target: panel of 255 wild-type kinases (Homo sapiens, UniProt Q9Y2H1); details: read-out: %-inhibition, NDR2
[3] = target: panel of 255 wild-type kinases (Homo sapiens, UniProt Q13131); details: read-out: %-inhibition AMPKα1/β1/γ1
[4] = target: panel of 255 wild-type kinases (Homo sapiens, UniProt Q9Y3S1); details: read-out: %-inhibition at 1 µmol/L, WNK2
[5] = target: T1, panel of 255 wild-type kinases (Homo sapiens, UniProt Q13470); details: read-out: %-inhibition at 1 µmol/L, TNK1
T1 sequence (Q13470 1-666): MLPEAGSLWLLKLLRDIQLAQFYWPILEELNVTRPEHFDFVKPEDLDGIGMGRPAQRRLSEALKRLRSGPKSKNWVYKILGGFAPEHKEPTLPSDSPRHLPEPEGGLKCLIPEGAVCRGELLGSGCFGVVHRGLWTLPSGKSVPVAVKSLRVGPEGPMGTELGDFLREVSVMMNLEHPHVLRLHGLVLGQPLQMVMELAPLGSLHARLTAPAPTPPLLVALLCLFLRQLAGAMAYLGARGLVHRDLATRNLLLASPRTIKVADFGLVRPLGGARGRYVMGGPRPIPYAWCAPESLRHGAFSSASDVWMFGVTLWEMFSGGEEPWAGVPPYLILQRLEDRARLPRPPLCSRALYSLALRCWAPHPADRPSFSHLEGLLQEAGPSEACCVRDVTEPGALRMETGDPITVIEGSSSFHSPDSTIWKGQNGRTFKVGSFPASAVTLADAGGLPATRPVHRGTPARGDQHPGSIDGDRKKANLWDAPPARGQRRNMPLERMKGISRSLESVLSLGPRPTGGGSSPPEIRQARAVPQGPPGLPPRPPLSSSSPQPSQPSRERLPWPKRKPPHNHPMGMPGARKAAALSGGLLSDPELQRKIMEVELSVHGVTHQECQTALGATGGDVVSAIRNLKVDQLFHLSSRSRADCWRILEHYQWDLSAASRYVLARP

[6] = target: panel of 255 wild-type kinases (Homo sapiens, UniProt Q13177); details: read-out: %-inhibition, PAK2
[7] = target: panel of 255 wild-type kinases (Homo sapiens, UniProt Q9NQU5); details: read-out: %-inhibition, PAK6
[8] = target: panel of 255 wild-type kinases (Homo sapiens, UniProt Q9UPE1); details: read-out: %-inhibition, MSSK1
[9] = target: panel of 255 wild-type kinases (Homo sapiens, UniProt Q13557); details: read-out: %-inhibition CaMK2δ
[10] = target: T2, panel of 255 wild-type kinases (Homo sapiens, UniProt Q96L34); details: read-out: %-inhibition, MARK4
T2 sequence (Q96L34 1-752): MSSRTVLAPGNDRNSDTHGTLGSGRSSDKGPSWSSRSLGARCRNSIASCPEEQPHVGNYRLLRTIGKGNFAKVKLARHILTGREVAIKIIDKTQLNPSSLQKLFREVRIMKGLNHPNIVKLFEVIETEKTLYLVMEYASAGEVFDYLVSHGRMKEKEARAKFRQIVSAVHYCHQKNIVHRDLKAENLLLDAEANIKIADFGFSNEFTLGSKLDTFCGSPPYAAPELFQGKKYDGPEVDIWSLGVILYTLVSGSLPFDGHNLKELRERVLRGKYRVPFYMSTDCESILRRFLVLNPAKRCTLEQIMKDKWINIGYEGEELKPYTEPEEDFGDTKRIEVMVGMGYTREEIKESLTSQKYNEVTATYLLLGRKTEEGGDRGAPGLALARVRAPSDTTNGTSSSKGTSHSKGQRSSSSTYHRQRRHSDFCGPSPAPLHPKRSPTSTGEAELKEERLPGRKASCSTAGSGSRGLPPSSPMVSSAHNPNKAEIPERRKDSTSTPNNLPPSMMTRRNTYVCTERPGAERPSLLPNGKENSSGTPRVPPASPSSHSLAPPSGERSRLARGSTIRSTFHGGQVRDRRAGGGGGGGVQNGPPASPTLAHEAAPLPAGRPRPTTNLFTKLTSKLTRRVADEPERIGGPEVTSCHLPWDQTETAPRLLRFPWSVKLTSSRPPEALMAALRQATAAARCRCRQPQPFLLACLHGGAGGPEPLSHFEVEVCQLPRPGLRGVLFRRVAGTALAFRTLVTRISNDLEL

[11] = target: panel of 255 wild-type kinases (Homo sapiens, UniProt Q13464); details: read-out: %-inhibition at 1 µmol/L, ROCK1
[12] = target: panel of 255 wild-type kinases (Homo sapiens, UniProt P06239); details: read-out: %-inhibition at 1 µmol/L, LCK
[13] = target: T3, panel of 255 wild-type kinases (Homo sapiens, UniProt Q96PN8); details: read-out: %-inhibition at 1 µmol/L, TSSK3
T3 sequence (Q96PN8 1-268): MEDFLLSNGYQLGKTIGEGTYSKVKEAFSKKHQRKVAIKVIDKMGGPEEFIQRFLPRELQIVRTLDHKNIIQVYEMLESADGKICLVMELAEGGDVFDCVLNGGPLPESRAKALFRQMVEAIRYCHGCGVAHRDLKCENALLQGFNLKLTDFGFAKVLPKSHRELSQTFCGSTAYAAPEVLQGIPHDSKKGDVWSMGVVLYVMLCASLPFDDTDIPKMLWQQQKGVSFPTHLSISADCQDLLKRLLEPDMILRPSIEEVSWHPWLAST

[14] = kinase FES, 1 µmol/L single concentration
[15] = NDR2, 1 µmol/L single concentration
[16] = AMPKα1/β1/γ1 kinase assay, 1 µmol/L single concentration
[17] = kinase WNK2, 1 µmol/L single concentration
[18] = kinase TNK1, 1 µmol/L single concentration
[19] = PAK2, 1 µmol/L single concentration
[20] = PAK6, 1 µmol/L single concentration
[21] = MSSK1, 1 µmol/L single concentration
[22] = CaMK2δ kinase assay, 1 µmol/L single concentration
[23] = MARK4, 1 µmol/L single concentration
[24] = kinase ROCK1, 1 µmol/L single concentration
[25] = kinase LCK, 1 µmol/L single concentration
[26] = kinase TSSK3, 1 µmol/L single concentration

inhibition at 1 µM [1, 14] [%] | inhibition at 1 µM [2, 15] [%] | inhibition at 1 µM [3, 16] [%] | inhibition at 1 µM [4, 17] [%] | inhibition at 1 µM [5, 18] [%] | inhibition at 1 µM [6, 19] [%] | inhibition at 1 µM [7, 20] [%] | inhibition at 1 µM [8, 21] [%] | inhibition at 1 µM [9, 22] [%] | inhibition at 1 µM [10, 23] [%] | inhibition at 1 µM [11, 24] [%] | inhibition at 1 µM [12, 25] [%] | inhibition at 1 µM [13, 26] [%] | SMILES | also measured
-3.3 | -3.24 | -2.66 | -4 | -8 | -3.7 | 12 | -5.32 | -3 | -11 | -1.15 | 8 | -3 | Cn1cnc2c(F)c(Nc3ccc(Br)cc3Cl)c(C(=O)NOCCO)cc21 [selumetinib] | 
15 | -4.53 | 22 | -2.37 | 30 | 5 | 14 | 2.44 | 1.36 | 25 | 3.51 | 77 | -4 | COc1ccc(CN2C3CC2CN(c2ccc(-c4cc(OCC(C)(C)O)cn5ncc(C#N)c45)cn2)C3)cn1 [selpercatinib] | 
-1.07 | -4.33 | -5.64 | -2 | -0.876 | -10 | 13 | -1.58 | 6 | -6.42 | -5.36 | 1.14 | 0.55 | O=C(Nc1cnn2ccc(N3CCC[C@@H]3c3cc(F)ccc3F)nc12)N1CC[C@H](O)C1 [larotrectinib] | 
 |  |  |  |  |  |  |  |  |  |  |  |  | CNC(=O)c1ccc(-c2cnc3ncc(Cc4ccc5ncccc5c4)n3n2)cc1F [capmatinib] | inhibition at 1 µM [1]: -2%; inhibition at 1 µM [2]: -5.51%; inhibition at 1 µM [3]: -4.64%; inhibition at 1 µM [4]: -2.3%; inhibition at 1 µM [5]: -11%; inhibition at 1 µM [6]: -1.68%; inhibition at 1 µM [7]: -34%; inhibition at 1 µM [8]: -3.24%; inhibition at 1 µM [9]: -1.07%; inhibition at 1 µM [10]: 6%; inhibition at 1 µM [11]: 1.06%; inhibition at 1 µM [12]: 4.23%; inhibition at 1 µM [13]: -7%
-0.806 | -0.151 | -4 | -1.82 | -2.72 | -1 | 3.69 | -2.73 | 4 | 4.7 | -4.36 | 7 | 3 | C[C@H](Nc1ncnc2nc[nH]c12)c1cc2cccc(Cl)c2c(=O)n1-c1ccccc1 [duvelisib] | 
8 | 0.23 | 46 | -1 | 71 | 16 | 42 | -6 | -1 | -9 | 3.43 | 98 | -5 | CO[C@]1(C(=O)N[C@@H](C)c2ccc(-n3cc(F)cn3)nc2)CC[C@H](c2nc(C)cc(Nc3cc(C)[nH]n3)n2)CC1 [pralsetinib] | 

SMILES | inhibition at 1 µM [1, 14] [%] | inhibition at 1 µM [2, 15] [%] | inhibition at 1 µM [3, 16] [%] | inhibition at 1 µM [4, 17] [%] | inhibition at 1 µM [5, 18] [%] | inhibition at 1 µM [6, 19] [%] | inhibition at 1 µM [7, 20] [%] | inhibition at 1 µM [8, 21] [%] | inhibition at 1 µM [9, 22] [%] | inhibition at 1 µM [10, 23] [%] | inhibition at 1 µM [11, 24] [%] | inhibition at 1 µM [12, 25] [%] | inhibition at 1 µM [13, 26] [%] | also measured
CCN1C(=O)N(c2c(F)c(OC)cc(OC)c2F)Cc2cnc3[nH]c(CN4CCOCC4)cc3c21 [pemigatinib] | 1.55 | -1.83 | -6.52 | -1.88 | 5 | 6 | 12 | -7 | 11 | 52 | -2.6 | 17 | -0.468 | 
FC(F)(F)c1ccc(CNc2ccc(Cc3c[nH]c4ncc(Cl)cc34)cn2)cn1 [pexidartinib] | 27 | 8 | -11 | -1.8 | 37 | -2.4 | 0.273 | -4 | 5.41 | 17 | 9 | 51 | 10 | 
C[C@H]1Oc2cc(cnc2N)-c2c(nn(C)c2C#N)CN(C)C(=O)c2ccc(F)cc21 [lorlatinib] |  | 2.18 | -3.58 | -0.739 | 97 | 11 | 14 | 33 | 36 | 18 | 3.64 | 24 | 3.55 | 
CN1CCN(c2ccc(C(=O)Nc3n[nH]c4ccc(Cc5cc(F)cc(F)c5)cc34)c(NC3CCOCC3)c2)CC1 [entrectinib] | 68 | 51 | 55 | 2.24 | 99 | -10 | 15 | 12 | 28 | 15 | 4.51 |  | 5.68 | 
